Measured values taken from paper PMC12052742, “Engineering a newly identified alcohol dehydrogenase from Sphingobium Sp. for efficient utilization of nicotinamide cofactors biomimetics” (Bioresources and Bioprocessing, 2025).

What was measured:
[1] = test system: SpADH2 variant H43L/A290I; assay: Substrate kinetic assay, H43L/A290I; type: biochemical, Sphingobium sp. SYK-6
Procedure: (§1) Specific activity of SpADH2 in substrate spectrum study was measured spectrophotometrically. PBS (pH 7.5) buffer was pre-heated at 30°C for 15 min. For NAD^+, 0.05 µg SpADH2 was added to the PBS buffer (100 µL), and a final concentration of 2 mM NAD^+ was added. For tsNCBs cofactor p-BANA^+, 5 µg SpADH2 and a final concentration of 7.5 mM p-BANA^+ was added. The mixture was carried out in a 96-well microplate, and a final concentration of 5 mM substrate was added to start the reaction. The microplate was incubated in 30°C for 1 h. Florescent probes (2-[2-(1,4-dihydro-1-methyl-3-quinolinyl)ethenyl]-1,3,3-trimethyl-3H-indolium) in a final concentration of 0.2 mM (100 µL) was added (Scheme S1), and the microplate was placed in a microplate reader immediately for measurement under 537 nm (Fomin et al. [2016]).
(§2) Kinetic analysis of SpADH2 and its variants were carried out following Michaelis-Menten equation or Michaelis-Menten excess substrate inhibition equation. For of the substrate kinetic assays, concentrations of cofactors were fixed at 5 mM for NAD^+ and 7.5 mM for p-BANA^+. For cofactor kinetic assays, the concentration of 1a was fixed at 5 mM.
(§3) Specific activity was determined spectrophotometrically as above except that gradient 1a (0−20 mM) or cofactor (0−35 mM) concentrations were applied.
(§4) Cofactor specificity ratio (CSR) represents the ratio of catalytic efficiency of p-BANA^+ to NAD^+ for each enzyme, and relative specificity (RS) stands for the CSR ratio of variants to WT (King et al. [2020]).

SpADH2 variant H43L [2] = assay: Substrate kinetic assay, H43L; type: biochemical, Sphingobium sp. SYK-6
Procedure: as §1, §2, §3, §4

SpADH2 variant A47L = assay: Activity of variant in oxidation of syringyl alcohol with p-BANA^+ (Fig. 5), A47L; type: biochemical, Sphingobium sp. SYK-6; conditions: cofactor p-BANA^+, substrate syringyl alcohol
Procedure: (§5) In the first round of screening, saturation mutagenesis was constructed for six positions (W114, T177, G172, G316, A47, and R227). […] Therefore, in the second round of mutagenesis, six additional sites within the 5 Å range of the cofactor ribose (H43, V202, T265, V288, G289, and A290) were selected for saturation mutagenesis screening (Fig. 6c and Fig. S6). Three beneficial mutations were identified. […] Subsequently, combinatorial mutagenesis was performed, resulting in 11 double variants and 3 triple variants.
(§6) Fig. 5 Relative activity of SpADH2 and its variants in oxidation of syringyl alcohol when utilizing p-BANA^+ as cofactor
(§7) In preliminary screening by spectrophotometric analysis, PBS (pH 7.5) buffer (50 µL) in a 96-well plate was pre-warmed at 30°C for 15 min, and a final concentration of 5 mM p-BANA^+ and 1 mM substrate syringyl alcohol were added, and 50 µL of crude enzyme were add to each well to start the reaction, with WT as control. The reaction mixture was incubated at 30°C for 1 h, followed by addition of fluorescent probes in a final concentration of 0.2 mM, and was subjected to determination under 537 nm as described above.

[3] = test system: SpADH2 variant H43L/A290I; assay: Cofactor kinetic assay, H43L/A290I; type: biochemical, Sphingobium sp. SYK-6
Procedure: as §1, §2, §3, §4

SpADH2 variant A290I [4] = assay: Substrate kinetic assay, A290I; type: biochemical, Sphingobium sp. SYK-6
Procedure: as §1, §2, §3, §4

SpADH2 WT = SpADH2 WT (Sphingobium sp. SYK-6, UniProt G2IIZ8); assay: Substrate kinetic assay, WT; type: biochemical
Procedure: as §1, §2, §3, §4

SpADH2 variant A290I [5] = assay: Cofactor spectrum (HPLC specific activity), variant A290I; type: biochemical, Sphingobium sp. SYK-6; conditions: 1a 5 mM, cofactor 7.5 mM, pH 7.5, 30℃, 5 µg enzyme, 1 h
Procedure: Fig. 8 Cofactor spectrums of SpADH2 and its variants. The darkness of color for each cofactor stands for the activity. For each cofactor cube, top left: WT, top right: H43L, bottom left: A290I, bottom right: H43L/A290I. (a) Natural cofactors and NMN^+ are shown in purple. (b) tsNCBs are shown in cyan. The evaluation of cofactor spectrum was carried out under following conditions: 50 mM PBS buffer (pH 7.5) and 30℃, with 1a (5 mM) as substrate and different cofactors (7.5 mM) as cofactor. For NAD(P)^+ and NMN^+, 0.05 µg enzyme was added, and for tsNCBs, 5 µg enzyme was added. The results were analyzed by HPLC after 1 h reaction
Specific activity of SpADH2 in cofactor spectrum study was determined by HPLC analysis. PBS (pH 7.5) buffer was pre-heated at 30°C for 15 min. For NAD(P)^+ and NMN^+, 0.05 µg SpADH2 was added to PBS buffer (100 µL). For tsNCBs, 5 µg SpADH2 was added. A final concentration of 7.5 mM cofactor was added to the reaction mixture. Finally, a final concentration of 5 mM substrate was added to start the reaction. The reactions were conducted at 30°C.
One unit of enzyme activity is defined as the amount of enzyme required to form 1 µmol 1b per minute at pH 7.5 and 30°C. Same reaction without cofactor was used as a blank control.

SpADH2 variant A47S = assay: Activity of variant in oxidation of syringyl alcohol with p-BANA^+ (Fig. 5), A47S; type: biochemical, Sphingobium sp. SYK-6; conditions: cofactor p-BANA^+, substrate syringyl alcohol
Procedure: as §5, §6, §7

SpADH2 variant H43L [6] = assay: Activity of variant in oxidation of syringyl alcohol with p-BANA^+ (Fig. 5), H43L; type: biochemical, Sphingobium sp. SYK-6; conditions: cofactor p-BANA^+, substrate syringyl alcohol
Procedure: as §5, §6, §7

SpADH2 variant A290I [7] = assay: Activity of variant in oxidation of syringyl alcohol with p-BANA^+ (Fig. 5), A290I; type: biochemical, Sphingobium sp. SYK-6; conditions: cofactor p-BANA^+, substrate syringyl alcohol
Procedure: as §5, §6, §7

SpADH2 variant A290V = assay: Activity of variant in oxidation of syringyl alcohol with p-BANA^+ (Fig. 5), A290V; type: biochemical, Sphingobium sp. SYK-6; conditions: cofactor p-BANA^+, substrate syringyl alcohol
Procedure: as §5, §6, §7

SpADH2 variant H43L [8] = assay: Cofactor kinetic assay, H43L; type: biochemical, Sphingobium sp. SYK-6
Procedure: as §1, §2, §3, §4

[9] = 1a varied, cofactor (= label) fixed: 5 mM NAD^+ or 7.5 mM p-BANA^+
[10] = substrate kinetics, cofactor = label
[11] = cofactor (= label) varied, 1a fixed at 5 mM
[12] = cofactor (= label) varied, 1a fixed at 5 mM, pH 7.5, 30°C
[13] = cofactor (= label) varied, 1a fixed at 5 mM, read-out: Ki (cofactor inhibition)

Chain of SpADH2 WT (G2IIZ8 1-372): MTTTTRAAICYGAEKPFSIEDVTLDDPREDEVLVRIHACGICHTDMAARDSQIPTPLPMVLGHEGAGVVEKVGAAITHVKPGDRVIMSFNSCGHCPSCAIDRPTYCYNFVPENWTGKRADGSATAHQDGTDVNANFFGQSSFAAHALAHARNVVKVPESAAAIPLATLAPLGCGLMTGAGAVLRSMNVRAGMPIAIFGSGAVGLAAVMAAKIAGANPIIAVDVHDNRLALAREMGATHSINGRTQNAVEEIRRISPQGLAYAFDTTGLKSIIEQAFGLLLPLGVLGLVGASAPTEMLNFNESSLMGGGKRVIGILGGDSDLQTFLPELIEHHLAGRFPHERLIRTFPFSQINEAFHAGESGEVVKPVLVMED

NC(=O)c1ccc[n+](Cc2ccc(C(=O)O)cc2)c1 [p-BANA^+, para-3-carbamoyl-1-(4-carboxybenzyl)pyridin-1-ium]
kcat [1, 9]: 6.8 ± 1.6 min^− 1
Cofactor specificity ratio (catalytic efficiency of p-BANA^+ to NAD^+) ([1]; substrate kinetics): 0.1026
fold increase in kcat vs WT [1, 10]: 6 fold
reduce in Km value vs WT [1, 10]: 30%
Relative specificity (CSR ratio of variant to WT) ([1]; substrate kinetics, in text as fold improvement in CSR): 6750
kcat (SpADH2 variant H43L [2]; [9]): 2.5 ± 0.9 min^− 1
Cofactor specificity ratio (catalytic efficiency of p-BANA^+ to NAD^+) (SpADH2 variant H43L [2]; substrate kinetics): 9.30×10^-4
Relative specificity (CSR ratio of variant to WT) (SpADH2 variant H43L [2]; substrate kinetics): 61.2
fold increase in kcat vs WT (SpADH2 variant H43L [2]; [10]): 2 fold
fold higher activity than WT (SpADH2 variant A47L): 4.3 fold
kcat [3, 11]: 8.7 ± 1.3 min^− 1
Km [3, 12]: 13 ± 2.7 mM
Ki [3, 13]: 15 ± 3.5 mM
Cofactor specificity ratio (catalytic efficiency of p-BANA^+ to NAD^+) ([3]; cofactor kinetics): 1.94×10^-2
Relative specificity (CSR ratio of variant to WT) ([3]; cofactor kinetics): 509
kcat (SpADH2 variant A290I [4]; [9]): 11 ± 4.1 min^− 1
Cofactor specificity ratio (catalytic efficiency of p-BANA^+ to NAD^+) (SpADH2 variant A290I [4]; substrate kinetics): 2.95×10^-4
Relative specificity (CSR ratio of variant to WT) (SpADH2 variant A290I [4]; substrate kinetics): 19.4
fold increase in kcat vs WT (SpADH2 variant A290I [4]; [10]): 10 fold
kcat (SpADH2 WT; [9]): 1.1 ± 0.3 min^− 1
Cofactor specificity ratio (catalytic efficiency of p-BANA^+ to NAD^+) (SpADH2 WT; substrate kinetics): 1.52×10^-5
catalytic activity with the tsNCB as cofactor (SpADH2 variant A290I [5]): 160.82 U/g
fold higher activity than WT (SpADH2 variant A47S): 1.8 fold
fold increase in activity vs WT (SpADH2 variant H43L [6]): 2 fold
fold increase in activity vs WT (SpADH2 variant A290I [7]): 10 fold
fold increase in activity vs WT (SpADH2 variant A290V): 3 fold
kcat (SpADH2 variant H43L [8]; [11]): 5.1 ± 2.0 min^− 1
Km (SpADH2 variant H43L [8]; [12]): 28 ± 13 mM
Ki (SpADH2 variant H43L [8]; [13]): 5.4 ± 2.5 mM
Cofactor specificity ratio (catalytic efficiency of p-BANA^+ to NAD^+) (SpADH2 variant H43L [8]; cofactor kinetics): 3.08×10^-4
Relative specificity (CSR ratio of variant to WT) (SpADH2 variant H43L [8]; cofactor kinetics): 8.08
